Where two headings read alike, the source gives them in different places.
Key:
[1] = test system: native GABAA receptors of guinea pig myenteric neurons; assay: Whole-cell recordings of membrane currents induced by GABA (IGABA) in cultured myenteric neurons; assay type: cell-based; conditions: for Effect of maximal antagonist concentration on IGABA: maximal concentrations used; for Voltage dependence of inhibitory effect (−60 mV vs +40 mV) / Time constant (t) of IGABA inhibition / Time to reach maximum inhibition: 100 μM DBTD; for Time constant (t) of IGABA inhibition: 3–180 s, Michaelis–Menten fit; for Time to reach maximum inhibition: after initial exposure; for Percentage of inhibition of GABA-induced inward currents: 100 μM compound, 3 min treatment, mean ± SEM (n); for Amplitude of IGABA with compound inside the pipette: 2b 100 μM internal; for Reversibility of current inhibition on washing: within five minutes of washing
Source text: Guinea pigs (100–200 g; either male or female) were sacrificed by cervical dislocation and carotid exsanguination. These methods have been approved by the Animal Care Committee of the IPICYT and are in agreement with the published Guiding Principles in the Care and Use of Animals, approved by the American Physiological Society. A segment of ~10 cm of the jejunum was removed and placed in a modified Krebs solution (in mM: NaCl, 126; NaH2PO4, 1.2; MgCl2, 1.2; CaCl2, 2.5; KCl, 5; NaH2CO3, 25; glucose, 11. The sample was gassed under 95% O2 and 5% CO2) and opened longitudinally. A dissecting microscope was used to dissect the mucosa and submucosa layers prior to removing most of the circular muscle layer, leaving the myenteric plexus embedded in a longitudinal layer.
The cell isolation procedure has been described elsewhere. The myenteric preparation was dissociated by sequential treatment with two enzymatic solutions: the first solution contained papain (0.01 mL·mL^−1 activated with 0.4 mg·mL^−1L-cysteine), and the second solution contained collagenase (1 mg·mL^−1) and dispase (4 mg·mL^−1). The enzymes were removed by washing the neurons with L15 medium, and the neurons were placed on round coverslips coated with sterile rat-tail collagen. The culture medium was varied from minimal medium to essential medium 97.5% containing 2.5% guinea pig serum, 2 mM L-glutamine, 10 U·mL^−1 penicillin, 10 μg·mL^−1 streptomycin, and 15 mM glucose.
To reduce the effects of the membrane currents other than those mediated by the activation of LGIC, experiments were conducted in the presence of Cs^+ (a potassium channel blocker). […] The holding potential was −60 mV (unless otherwise stated), and the short-term (4–50 h) primary cultures of the myenteric neurons were used to prevent space-clamp problems due to neurite growth. Glass pipettes with a resistance of 2–5 MΩ were prepared as described previously. This low resistance and slight suction inside the pipette during the recordings maintained a low series resistance (around 6 MΩ).
All experiments were conducted using standard solutions with the following compositions (in mM); inside the pipette: CsCl, 160; EGTA, 10; HEPES, 5; NaCl, 10; ATPMg, 3 and GTP, 0.1; external solution: NaCl, 160; CaCl2, 2; glucose, 11; HEPES, 5 and CsCl, 3. The pH of all solutions was adjusted to 7.3–7.4 using either CsOH (pipette solution) or NaOH (external solution). The seal resistance in the whole-cell mode ranged from 1 to 10 GΩ. The whole-cell current data were recorded on a PC using the AxoScope software (Axon Instruments, Inc.) and were analyzed using the AXOGRAPH software (Molecular Devices, CA, USA). The recording chamber was superfused with an external solution at ~2 mL·min^−1. The solution around the neuron was quickly exchanged during recordings using an eight-tube device. Each tube was connected to a syringe (10 mL) containing either the control or the experimental solution. A control tube was positioned ~300 μm in front of the recorded neuron, and substances were applied externally by abruptly interchanging the tube for another tube containing the control solution plus the drug(s). […] Experimental substances were removed by returning to the control solution. External solutions were applied by gravity, and the height of the syringes was continuously adjusted to minimize changes in the flow rate. The experiments were performed at room temperature (24 ± 1 °C).
L15 medium, minimum essential medium, Hanks solution, penicillin-streptomycin, and L-glutamine were purchased from GIBCO (Life Technologies Corp., Carlsbad, CA, USA). Collagenase and papain were purchased from Worthington (Worthington Biochemical Corp., Lakewood, NJ, USA), and dispase was purchased from Roche (Indianapolis, IN, USA). […] Pentobarbital-Na was purchased from Lab Ttokkyo, S.A. (México, D.F., Mexico).

[2] = Solubility under the electrophysiological experimental conditions; assay type: physicochemical; conditions: for solubility: under experimental conditions, read-out: Highest soluble concentration (insoluble above)
Description: To investigate this possibility, we added 100 μM 2b to the pipette solution (internal) and monitored IGABA, and we applied 2b to the outside of the cells and monitored the inhibitory effects (Figure 6). Experiments were performed using 2b, even though cLog P was less than 2, because 2c and 2d were insoluble under the conditions employed. […] Consistent with these findings, in recordings with 2b in the pipette, the amplitude of IGABA was the same 5 min (−1536 ± 379 pA) and 10 min (−1604 ± 409 pA; n = 4) after obtaining the whole-cell configuration. […] Thus, such an inhibition was as large as that observed without 2b inside the cells (Figure 6B).

[3] = DBTD 3–1,000 μM, 3 min before 300 μM GABA, fit assuming 100% inhibition, read-out: IC50 for inhibition of IGABA by DBTDs

CCOC(=O)c1ncn2c1CN(C)C(=O)c1cc(F)ccc1-2 [flumazenil, reference compound]
Effect of flumazenil alone on holding current or IGABA ([1]; 10 μM, 3 min, five neurons, data not shown): did not induce changes in the holding current or IGABA

CN1CCc2cc3c(cc2[C@H]1[C@@H]1OC(=O)c2c1ccc1c2OCO1)OCO3 [bicuculline, reference compound]
Effect of maximal antagonist concentration on IGABA [1]: virtually abolished IGABA | IC50 ([1]; read-out: IC50 for inhibition of IGABA by GABAA inhibitors): 10 ± 2 µM

O=S1(=O)Nc2ccc(F)cc2Nc2ccccc21 [2b, 9-Fluoro-6,11-dihydrodibenzo[c,f][1,2,5]thiadiazepine-5,5-dioxide]
Decrease of the maximum of the GABA concentration–response curve ([1]; 100 μM 2b): ~ 50% | Type of antagonism ([1]; 100 μM 2b, GABA concentration-response curves): non-competitive | Voltage dependence of inhibitory effect (−60 mV vs +40 mV) ([1]; 300 μM GABA): identical | Time constant (t) of IGABA inhibition ([1]; 300 μM GABA): 4.9 s | Time to reach maximum inhibition [1]: 3 min | Percentage of inhibition of GABA-induced inward currents ([1]; 300 μM GABA): 50.8 ± 2.1 (12) % | Amplitude of IGABA with compound inside the pipette ([1]; 300 μM GABA, 2 to 3 min after whole cell configuration, n = 4): −1408 ± 344 pA | Amplitude of IGABA with compound inside the pipette ([1]; 5 min after whole-cell configuration): −1536 ± 379 pA | Amplitude of IGABA with compound inside the pipette ([1]; 10 min after whole-cell configuration, n = 4): −1604 ± 409 pA | IC50 [1, 3]: 104 ± 9.2 µM | Maximum effect on GABA-activated currents ([1]; at 1 mM): complete inhibition | Reversibility of current inhibition on washing [1]: fully reversed

O=S1(=O)Nc2ccc(Br)cc2Nc2ccccc21 [2d, 9-Bromo-6,11-dihydrodibenzo[c,f][1,2,5]thiadiazepine-5,5-dioxide]
solubility [2]: ≤ 300 µM | Voltage dependence of inhibitory effect (−60 mV vs +40 mV) ([1]; 300 μM GABA): identical | Time constant (t) of IGABA inhibition ([1]; 300 μM GABA): 29.3 s | Percentage of inhibition of GABA-induced inward currents ([1]; 300 μM GABA): 74.2 ± 2.4 (10) % | Calculated time required to reach maximum inhibition ([1]; 100 μM, calculated from fit): 17 min | Calculated maximum inhibition ([1]; 100 μM, from Michaelis–Menten fit): 87.0 ± 3.0% | IC50 [1, 3]: 47.6 ± 30.3 µM | Reversibility of current inhibition on washing [1]: fully reversed

O=S1(=O)Nc2ccc(Cl)cc2Nc2ccccc21 [2c, 9-Chloro-6,11-dihydrodibenzo[c,f][1,2,5]thiadiazepine-5,5-dioxide]
solubility [2]: ≤ 300 µM | Voltage dependence of inhibitory effect (−60 mV vs +40 mV) ([1]; 300 μM GABA): identical | Time constant (t) of IGABA inhibition ([1]; 300 μM GABA): 2.6 s | Time to reach maximum inhibition [1]: 3 min | Percentage of inhibition of GABA-induced inward currents ([1]; 300 μM GABA): 74.2 ± 3.6 (6) % | IC50 [1, 3]: 50.4 ± 6.4 µM | Interaction with picrotoxin effect ([1]; simultaneous application, n = 4): neither picrotoxin effect was modified by 2c nor the inhibitory effect of 2c was affected by picrotoxin | Reversibility of current inhibition on washing [1]: fully reversed

CCOC(=O)c1ccc2c(c1)Nc1ccccc1S(=O)(=O)N2 [2f, Ethyl 6,11-dihydrodibenzo[c,f][1,2,5]thiadiazepine-9-carboxylate-5,5-dioxide]
Solubility remark (potency could not be calculated) [2]: solubility problems | Percentage of inhibition of GABA-induced inward currents ([1]; 300 μM GABA): 47.1 ± 3.7 (7) %

picrotoxin [reference compound]
IC50 ([1]; bicuculline 0.1–100 μM, picrotoxin 3–1,000 μM, data not shown, read-out: IC50 for inhibition of IGABA by GABAA inhibitors): 6 ± 1 µM | Effect of maximal antagonist concentration on IGABA [1]: virtually abolished IGABA

O=S1(=O)Nc2ccccc2Nc2ccccc21 [2a, 6,11-Dihydrodibenzo[c,f][1,2,5]thiadiazepine-5,5-dioxide]
Solubility remark (potency could not be calculated) [2]: solubility problems | Percentage of inhibition of GABA-induced inward currents ([1]; 300 μM GABA): 28.4 ± 1.4 (5) %

O=C(O)c1ccc2c(c1)Nc1ccccc1S(=O)(=O)N2 [2g, 6,11-Dihydrodibenzo[c,f][1,2,5]thiadiazepine-9-carboxylic acid 5,5-dioxide]
melting point: 350 °C | Solubility remark (potency could not be calculated) [2]: solubility problems | Percentage of inhibition of GABA-induced inward currents ([1]; 300 μM GABA): 16.0 ± 2.4 (6) %

COc1ccc2c(c1)Nc1ccccc1S(=O)(=O)N2 [2e, 9-Methoxy-6,11-dihydrodibenzo[c,f][1,2,5]thiadiazepine-5,5-dioxide]
Solubility remark (potency could not be calculated) [2]: solubility problems | Percentage of inhibition of GABA-induced inward currents ([1]; 300 μM GABA): 43.7 ± 3.8 (3) %

NCCCC(=O)O [GABA]
Amplitude of IGABA among different neurons ([1]; response to 300 μM GABA, −60 mV): 0.1–6 nA

Source: paper PMC6270094, “Dibenzo[1,2,5]thiadiazepines Are Non-Competitive GABAA Receptor Antagonists” (Molecules, 2013)
